Laboratory results: patent US5856325A, “Benzotriazines, pharmaceutical compositions, and methods of using same” (Boehringer Mannheim GmbH, priority 1992, dated 1999)

Columns and labels:
[1] = target: T1, human recombinant type II PLA2 (synovial PLA2) (Homo sapiens, UniProt P14555); test: Inhibition of the human recombinant type II PLA2 (synovial PLA2), in vitro; type: biochemical
T1 sequence (P14555 21-144): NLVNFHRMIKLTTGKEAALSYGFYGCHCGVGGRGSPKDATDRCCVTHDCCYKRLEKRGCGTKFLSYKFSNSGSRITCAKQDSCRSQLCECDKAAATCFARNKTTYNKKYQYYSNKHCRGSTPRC
Description: a) Inhibition of the human recombinant type II PLA2) (=synovial PLA2)
As typical respresentative of A PLA2, there was selected for the testing the synovial PLA2 (dissertation of Rainer Muller, 1993; University of Regensburg).
As representative of the compounds I or Ia, respectively, there was investigated in more detail the compound from Example 1. In the following Table, there is given dosage-dependent the percentage in vitro inhibition of PLA2.

[2] = system: collagen-induced arachidonic acid (AA) liberation from human thrombocytes; test: Inhibition of the collagen-induced arachidonic acid (AA) liberation from human thrombocytes (3H-AA); type: cell-based
Experimental: b) Inhibition of the collagen-induced arachidonic acid
(AA) liberation from human thrombocytes
As further indicator of a PLA2 inhibition, there is valid an inhibition of the AA liberation from thrombocytes. For this purpose, the thrombocytes are equilibrated with ^3 H-AA. This added radioactive arachidonic acid incorporates into membrane phospholipids. Subsequently, the thrombocytary PLA2 is activated via the collagen receptor and ^3 H-AA thus again liberated from the membrane phospholipids into the medium where it can be measured.

Compound: Nc1nc2ccccc2[n+]([O-])n1 [Example 1, 1,2,4-Benzotriazine-3-amine 1-oxide]
- inhibition at 1 µg/mL ([1]; 1 μg/ml): 43%
- inhibition at 10 µg/mL ([1]; 10 μg/ml): 60%
- inhibition at 100 µg/mL ([1]; 100 μg/ml): 99%
- inhibition at 10 µg/mL ([2]; 10 μg/ml, collagen-induced, human thrombocytes): 29%
- inhibition at 100 µg/mL ([2]; 100 μg/ml, collagen-induced, human thrombocytes): 91%
- inhibition of the collagen-induced AA liberation, maximum ([2]; dosage-dependent): up to 91%
